Converted amounts (≈) assume the structure as drawn. The source made the active and inactive calls. The rule behind the calls is not given here.
Legend:
[1] = system: [Candida] auris; assay: (§1) Synergetic antifungal activity against Candida auris 0030 assessed as microbial growth inhibition incubated for 24 hrs in the presence of (S)-4-((2-(6-(4-Chlorophenyl)-1-methyl-7,8,9,10-tetrahydro-4H-benzo-(4,5)thieno[3,2-f][1,2,4]triazolo(4,3-a)(1,4)diazepin-4-yl)-acetamido)-methyl)-N-hydroxybenzamide by checkerboard microdilution method; type: functional; settings: Candidozyma auris
[2] = system: Candida albicans; assay: Downregulation of ADH5 expression in Candida albicans 0304103 at 32 ug/mL incubated for 24 hrs by RT q-PCR analysis; type: functional; settings: dose 32.0 µg/ml
[3] = system: Candida albicans; assay: Antifungal activity against Candida albicans 10061 assessed as microbial growth inhibition; type: functional
[4] = system: Candida albicans; assay: Antibiofilm activity against FLC-resistant Candida albicans 0304103 assessed as inhibition of biofilm formation at 64 ug/mL incubated for 24 hrs by XTT reduction assay; type: functional, organism-based; settings: dose 64.0 µg/ml
[5] = system: Candida albicans; assay: Synergetic antifungal activity against Candida albicans 0304103 assessed as microbial growth inhibition incubated for 24 hrs in the presence of (S)-N-Hydroxy-2-(4-(2-(1-methyl-6-(p-toly1)-4H-benzo[f](1,2,4)-triazolo[4,3-a][1,4]diazepin-4-yl)acetamido)phenyl)acetamideby checkerboard microdilution method; type: functional
[6] = system: Cryptococcus neoformans; assay: Antifungal activity against Cryptococcus neoformans H99 assessed as fungal growth inhibition incubated for 24 hrs by broth dilution method; type: functional
[7] = system: Cryptococcus neoformans; assay: as §1, with “Cryptococcus neoformans 011405” for “Candida auris 0030”; type: functional
[8] = system: Candida albicans; assay: Synergetic antifungal activity against Candida albicans 0304103 assessed as microbial growth inhibition incubated for 24 hrs in the presence of (S)-4-(2-(6-(4-Chloropheny1)-1-methy1-4H-benzo(f)(1,2,4)-triazolo(4,3-a)[1,4]diazepin-4-yl)acetamido)methyl)-N-hydroxybenzamide by checkerboard microdilution method; type: functional
[9] = system: Candida albicans; assay: Synergetic antifungal activity against Candida albicans 0304103 assessed as microbial growth inhibition incubated for 24 hrs in the presence of (S,E)-3-(4-(2-(6-(4-Chlorophenyl)-1-methy1-4H-benzo[f][1,2,4]-triazolo(4,3-a)[1,4]diazepin-4-yl)acetamido)phenyl)-N-hydroxyacrylamide by checkerboard microdilution method; type: functional
[10] = system: Candida albicans; assay: Synergetic antifungal activity against Candida albicans 0304103 assessed as microbial growth inhibition incubated for 24 hrs in the presence of (S)-N-Hydroxy-4-((2-(1-methyl-6-(p-toly1)-4H-benzo[f](1,2,4)-triazolo-(4,3-a][1,4]diazepin-4-y1)acetamido)methyl)benzamide by checkerboard microdilution method; type: functional
[11] = system: Candida albicans; assay: Synergetic antifungal activity against Candida albicans 0304103 assessed as microbial growth inhibition incubated for 24 hrs in the presence of (S)-2-(8-Chloro-6-(2-chlorophenyl)-1-methyl-4H-benzo[f][1,2,4]-triazolo(4,3-a][1,4]diazepin-4-y1)-N-(4-(2-(hydroxyamino)-2-oxoethyl)-phenyl)acetamide by checkerboard microdilution method; type: functional
[12] = system: Candida albicans; assay: Synergetic antifungal activity against Candida albicans 0304103 assessed as microbial growth inhibition incubated for 24 hrs in the presence of (S,E)-N-Hydroxy-3-(4-(2-(l-methyl-6-phenyl-4H-benzo[f][1,2,4]-triazolo[4,3-a][1,4]diazepin-4-y1)acetamido)phenyl)acrylamide by checkerboard microdilution method; type: functional
[13] = system: Candida albicans; assay: Synergetic antifungal activity against Candida albicans 0304103 assessed as microbial growth inhibition incubated for 24 hrs in the presence of (S)-N-Hydroxy-2-(4-(2-(l-methyl-6-phenyl-4H-benzo[f](1,2,4)-triazolo-[4,3-a][1,4]diazepin 4-yl)acetamido)phenyl)acetamide by checkerboard microdilution method; type: functional
[14] = system: Candida albicans; assay: Synergetic antifungal activity against Candida albicans 0304103 assessed as microbial growth inhibition incubated for 24 hrs in the presence of (S)-4-(2-(6-(4-Chlorophenyl)-1-methyl-4H-benzo[f](1,2,4)-triazolo(4,3-a)(1,4)diazepin-4-yl)acetamido)-N-hydroxybenzamide by checkerboard microdilution method; type: functional
[15] = system: Candida albicans; assay: Synergetic antifungal activity against Candida albicans 0304103 assessed as microbial growth inhibition incubated for 24 hrs in the presence of (S)-4-(2-(6-(4-Chlorophenyl)-1-methyl-7,8,9,10-tetrahydro-4Hbenzo-[4,5]thieno(3,2-f)(1,2,4)triazolo(4,3-a)[1,4]diazepin-4-yl)-acetamido)-N-hydroxybenzamide by checkerboard microdilution method; type: functional
[16] = system: Candida albicans; assay: Synergetic antifungal activity against Candida albicans 0304103 assessed as microbial growth inhibition incubated for 24 hrs in the presence of (S)-4-((2-(8-Chloro-6-(2-chloropheny1)-1-methyl-4H-benzo[f]-[1,2,4]-triazolo(4,3-a)(1,4]diazepin-4-yl)acetamido)methyl)-N-hydroxy-benzamide by checkerboard microdilution method; type: functional
[17] = system: Candida albicans; assay: Synergetic antifungal activity against Candida albicans 0304103 assessed as microbial growth inhibition incubated for 24 hrs in the presence of SAHA by checkerboard microdilution method; type: functional
[18] = system: Candida albicans; assay: Synergetic antifungal activity against Candida albicans 0304103 assessed as microbial growth inhibition incubated for 24 hrs in the presence of (S,E)-3-(4-(2-(6-(4-Chlorophenyl)-1-methyl-7,8,9,10-tetrahydro-4H-benzo-(4,5]thieno(3,2-f)(1,2,4)triazolo(4,3-a)(1,4]diazepin-4-yl)acetamido)pheny1)N-hydroxyacrylamide by checkerboard microdilution method; type: functional
[19] = system: [Candida] auris; assay: as §1, with “0029” for “0030”; type: functional; settings: Candidozyma auris
[20] = system: Candida albicans; assay: Antifungal activity against Candida albicans 9172 assessed as microbial growth inhibition; type: functional
[21] = system: Candida albicans; assay: Downregulation of ERG11 expression in Candida albicans 0304103 at 32 ug/mL incubated for 24 hrs by RT q-PCR analysis; type: functional; settings: dose 32.0 µg/ml
[22] = system: Candida albicans; assay: microbe, parasite or virus in culture; type: functional; settings: 0304103
Description: Antifungal activity against Candida albicans 0304103 assessed as microbial growth inhibition

[23] = system: Candida albicans; assay: Downregulation of CDR1 expression in Candida albicans 0304103 at 32 ug/mL incubated for 24 hrs by RT q-PCR analysis; type: functional; settings: dose 32.0 µg/ml
[24] = system: Candida albicans; assay: as §1, with “albicans 9884” for “auris 0030”; type: functional
[25] = system: Candida albicans; assay: Downregulation of GCA1 expression in Candida albicans 0304103 at 32 ug/mL incubated for 24 hrs by RT q-PCR analysis; type: functional; settings: dose 32.0 µg/ml
[26] = system: Candida albicans; assay: Synergetic antifungal activity against Candida albicans 0304103 assessed as microbial growth inhibition incubated for 24 hrs in the presence of (S)-N-Hydroxy-4-((2(1-methyl-6-phenyl-4H-benzor[f](1,2,4)-triazolo-[4,3-a][1,4]diazepin 4-yl)acetamido)methyl)benzamide by checkerboard microdilution method; type: functional
[27] = system: Cryptococcus neoformans; assay: Antifungal activity against Cryptococcus neoformans 011405 assessed as microbial growth inhibition; type: functional
[28] = system: [Candida] auris; assay: Antifungal activity against Candida auris 0029 assessed as microbial growth inhibition; type: functional; settings: Candidozyma auris
[29] = system: Candida albicans; assay: as §1, with “albicans 10061” for “auris 0030”; type: functional
[30] = system: Candida albicans; assay: Synergetic antifungal activity against Candida albicans 0304103 assessed as microbial growth inhibition incubated for 24 hrs in the presence of (S)-2-(6-(4-Chlorophenyl)-1-methyl-4H-benzo[f][1,2,4]triazolo-14,3-a)(1,4)diazepin-4-yl)-N-(4-(2-(hydroxyamino)-2-oxoethyl)-phenyl)acetamide by checkerboard microdilution method; type: functional
[31] = system: Candida albicans; assay: Synergetic antifungal activity against Candida albicans 0304103 assessed as microbial growth inhibition incubated for 24 hrs in the presence of (S)-N-Hydroxy-4-(2-(1-methyl-6-phenyl-4H-benzo[f](1,2,4)-triazolo-[4,3-a],[1,4]diazepin-4-yl)acetamido)benzamide by checkerboard microdilution method; type: functional
[32] = system: Candida albicans; assay: Synergetic antifungal activity against Candida albicans 0304103 assessed as microbial growth inhibition incubated for 24 hrs in the presence of (S)-4-((2-(6-(4-Chlorophenyl)-1-methyl-7,8,9,10-tetrahydro-4H-benzo-(4,5)thieno[3,2-f][1,2,4]triazolo(4,3-a)(1,4)diazepin-4-yl)-acetamido)-methyl)-N-hydroxybenzamide by checkerboard microdilution method; type: functional
[33] = system: Candida albicans; assay: Synergetic antifungal activity against Candida albicans 0304103 assessed as microbial growth inhibition incubated for 24 hrs in the presence of (S, E)-N-Hydroxy-3-(4-(2-(1-methyl-6-(p-tolyl)-4H-benzo(f)-(1,2,4)triazolo(4,3-a)[1,4]diazepin-4-y)acetamido)phenyl)-acrylamide by checkerboard microdilution method; type: functional
[34] = system: Candida albicans; assay: Antifungal activity against Candida albicans 9884 assessed as microbial growth inhibition; type: functional
[35] = system: Nakaseomyces glabratus; assay: as §1, with “glabrata 4408” for “auris 0030”; type: functional

OC(Cn1cncn1)(Cn1cncn1)c1ccc(F)cc1F [FLUCONAZOLE]
MIC80 [1]: 64 µg/mL | Activity [2]: inactive | MIC80 [3]: > 64 µg/mL | Activity [4]: inactive | MIC80 [5]: 1 µg/mL | MIC80 [6]: 1 µg/mL (≈ 3.27 µM) | MIC80 [7]: 2 µg/mL | MIC80 [8]: 2 µg/mL | MIC80 [9]: 0.25 µg/mL | MIC80 [10]: 1 µg/mL | MIC80 [11]: 1 µg/mL | MIC80 [12]: 2 µg/mL | MIC80 [13]: 4 µg/mL | MIC80 [14]: 4 µg/mL | MIC80 [15]: 1 µg/mL | MIC80 [16]: 2 µg/mL | MIC80 [17]: 4 µg/mL | MIC80 [18]: 0.25 µg/mL | MIC80 [19]: 64 µg/mL | MIC80 [20]: > 64 µg/mL | Activity [21]: inactive | MIC80 [22]: > 64 µg/mL | Activity [23]: inactive | MIC80 [24]: 0.25 µg/mL | Activity [25]: Active | MIC80 [26]: 1 µg/mL | MIC80 [27]: 8 µg/mL (≈ 26.1 µM) | MIC80 [28]: > 64 µg/mL | MIC80 [29]: 1 µg/mL | MIC80 [30]: 16 µg/mL | MIC80 [31]: 2 µg/mL | MIC80 [32]: 2 µg/mL | MIC80 [33]: 2 µg/mL | MIC80 [34]: 2 µg/mL (≈ 6.53 µM) | MIC80 [35]: 2 µg/mL

Reference: ChEMBL document CHEMBL5331104, “Discovery of BRD4-HDAC Dual Inhibitors with Improved Fungal Selectivity and Potent Synergistic Antifungal Activity against Fluconazole-Resistant Candida albicans” (J Med Chem, 2023)
